From ChEMBL document CHEMBL1201862, “PubChem BioAssay data set” (2004)
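Five concentrations, 48 hours, 96-well plates. GI50 marks 50% less growth.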 Active and inactive are the calls of the source. No stated cut-off is given here; in the data, active = GI50 up to about 1.1 µM and inactive = higher.

How the values were obtained:
Test in all cases: DTP human tumour cell line panel, 48 h
[1] = system: SNB-75
[2] = system: KM12
[3] = system: OVCAR-8
[4] = system: IGROV-1
[5] = system: UO-31
[6] = system: SN12C
[7] = system: PC-3
[8] = system: RXF 393
[9] = system: CCRF-CEM
[10] = system: BT-549
[11] = system: DU-145
[12] = system: A549
[13] = system: NCI-H460
[14] = system: Hs-578T
[15] = system: HCC 2998
[16] = system: SK-MEL-5
[17] = system: M14
[18] = system: OVCAR-3
[19] = system: SNB-19
[20] = system: NCI/ADR-RES

Row | SMILES | GI50 [1] | GI50 [2] | GI50 [3] | GI50 [4] | GI50 [5] | GI50 [6] | GI50 [7] | GI50 [8] | GI50 [9] | GI50 [10] | GI50 [11] | GI50 [12] | GI50 [13] | GI50 [14] | GI50 [15] | GI50 [16] | GI50 [17] | GI50 [18] | GI50 [19] | GI50 [20]
1 | CN1N=C(N)c2cn(C3OC(COP(=O)(O)O)C(O)C3O)c3ncnc1c23 (centres undefined) | 5.33 µM (inactive) | 2980 µM (inactive) | 1.28 µM (inactive) | 0.935 µM (active) | 4.97 µM (inactive) | 4.24 µM (inactive) | 0.836 µM (active) | 14 µM (inactive) | 13 µM (inactive) | 7.48 µM (inactive) | 1.48 µM (inactive) | 39.7 µM (inactive) | 52.8 µM (inactive) | 14.1 µM (inactive) | 129 µM (inactive) | 1080 µM (inactive) | 7.33 µM (inactive) | 35.2 µM (inactive) | 53.3 µM (inactive) | 4.08 µM (inactive)
2 | Cc1cc(C)c2c(=O)cc(-c3ccccc3)[nH]c2c1 | 3.16 µM (inactive) | 0.548 µM (active) | 3.66 µM (inactive) | 2.86 µM (inactive) | 9.46 µM (inactive) | 5.25 µM (inactive) | 2.06 µM (inactive) | 1.61 µM (inactive) | 1.49 µM (inactive) | 7.45 µM (inactive) | 4.44 µM (inactive) | 1.84 µM (inactive) | 1.92 µM (inactive) | 4.59 µM (inactive) | 1.38 µM (inactive) | 1.3 µM (inactive) | 3.37 µM (inactive) | 3.47 µM (inactive) | 5.43 µM (inactive) | 1.61 µM (inactive)
3 | CC[C@@]1(O)C(=O)OCc2c1cc1n(c2=O)Cc2c-1nc1ccccc1c2/C=N\NC(=O)C(N)CC(C)C (some centres undefined) | < 0.01 µM (active) | 0.152 µM (active) | < 0.0132 µM (active) | 0.233 µM (active) | < 0.0106 µM (active) | < 0.01 µM (active) | < 0.0188 µM (active) | < 0.0143 µM (active) | < 0.01 µM (active) | 0.0382 µM (active) | < 0.01 µM (active) | 0.016 µM (active) | < 0.01 µM (active) | 11.3 µM (inactive) | 0.118 µM (active) | < 0.0128 µM (active) | < 0.0128 µM (active) | 0.297 µM (active) | < 0.01 µM (active) | 0.0215 µM (active)
4 | CO/N=C1/C(n2[nH]c(=O)n(-c3ccccc3)c2=O)C2C=CC1n1c(=O)n(-c3ccccc3)c(=O)n12 (centres undefined) | > 100 µM (inactive) | > 100 µM (inactive) | > 100 µM (inactive) | > 100 µM (inactive) | > 100 µM (inactive) | > 100 µM (inactive) | > 100 µM (inactive) | > 100 µM (inactive) | > 100 µM (inactive) | > 100 µM (inactive) | > 100 µM (inactive) | > 100 µM (inactive) | > 100 µM (inactive) | > 100 µM (inactive) | > 100 µM (inactive) | > 100 µM (inactive) | > 100 µM (inactive) | > 100 µM (inactive) | > 100 µM (inactive) | > 100 µM (inactive)
5 | COc1ccc(N2CN3OC(=O)N(c4ccc(OC)cc4)[C@@]3(c3ccccc3)C2)cc1 | 14.4 µM (inactive) | 6.46 µM (inactive) | 33.3 µM (inactive) | 20.7 µM (inactive) | 32.9 µM (inactive) | 31.6 µM (inactive) | 10.8 µM (inactive) | 19.9 µM (inactive) | 6 µM (inactive) | 21.5 µM (inactive) | 81.5 µM (inactive) | 29 µM (inactive) | 16.6 µM (inactive) | 37.6 µM (inactive) | 11.5 µM (inactive) | 11.9 µM (inactive) | 34.4 µM (inactive) | 13.1 µM (inactive) | 44 µM (inactive) | 9.48 µM (inactive)
6 | Clc1ccc(Cl)c(SCCCN2CCNCC2)c1 | 13.4 µM (inactive) | 25.5 µM (inactive) | 20.3 µM (inactive) | 18.2 µM (inactive) | 14.4 µM (inactive) | 19.2 µM (inactive) | 14.6 µM (inactive) | 14.4 µM (inactive) | 19.9 µM (inactive) | 17.1 µM (inactive) | 15.8 µM (inactive) | 20.6 µM (inactive) | 18.4 µM (inactive) | 16.1 µM (inactive) | 3.61 µM (inactive) | 15.2 µM (inactive) | 17.3 µM (inactive) | 19.2 µM (inactive) | 16.9 µM (inactive) | 17.3 µM (inactive)
7 | Cc1ccc(-n2c(O)c(C#N)c3[nH]nc(N)c3c2=O)cc1 | > 100 µM (inactive) | > 100 µM (inactive) | > 100 µM (inactive) | > 100 µM (inactive) | > 100 µM (inactive) | > 100 µM (inactive) | > 100 µM (inactive) | > 100 µM (inactive) | > 100 µM (inactive) | > 100 µM (inactive) | > 100 µM (inactive) | > 100 µM (inactive) | > 100 µM (inactive) | > 100 µM (inactive) | > 100 µM (inactive) | > 100 µM (inactive) | > 100 µM (inactive) | > 100 µM (inactive) | > 100 µM (inactive) | > 100 µM (inactive)
8 | N=C(N)NS(=O)(=O)c1ccc(NC(=O)c2ccc3nc4ccccc4c(Nc4ccc(S(N)(=O)=O)cc4)c3c2)cc1 | > 100 µM (inactive) | > 100 µM (inactive) | > 100 µM (inactive) | > 100 µM (inactive) | > 100 µM (inactive) | > 100 µM (inactive) | > 100 µM (inactive) | > 100 µM (inactive) | > 100 µM (inactive) | > 100 µM (inactive) | > 100 µM (inactive) | > 100 µM (inactive) | > 100 µM (inactive) | > 100 µM (inactive) | > 100 µM (inactive) | > 100 µM (inactive) | > 100 µM (inactive) | > 100 µM (inactive) | > 100 µM (inactive) | > 100 µM (inactive)
9 | Clc1cccc(Cl)c1C1SCC2=Nc3ccccc3CN21 (centres undefined) | 38.3 µM (inactive) | 20.8 µM (inactive) | – | 22.9 µM (inactive) | 17.3 µM (inactive) | 46.7 µM (inactive) | 18.7 µM (inactive) | 27.8 µM (inactive) | 32.4 µM (inactive) | 66.4 µM (inactive) | 25 µM (inactive) | 20.5 µM (inactive) | 19.5 µM (inactive) | 24.8 µM (inactive) | 29.6 µM (inactive) | 15.8 µM (inactive) | 18.4 µM (inactive) | 15 µM (inactive) | 5.18 µM (inactive) | 19.4 µM (inactive)
10 | CC1OC(=O)C2CC3CCCCC3C(/C=C/C3CCCC(C)N3C)C12 (centres undefined) | > 95.5 µM (inactive) | > 100 µM (inactive) | > 100 µM (inactive) | > 100 µM (inactive) | > 100 µM (inactive) | > 100 µM (inactive) | > 100 µM (inactive) | > 100 µM (inactive) | > 100 µM (inactive) | > 100 µM (inactive) | > 100 µM (inactive) | > 100 µM (inactive) | > 100 µM (inactive) | > 100 µM (inactive) | > 100 µM (inactive) | 94.6 µM (inactive) | > 100 µM (inactive) | > 100 µM (inactive) | > 100 µM (inactive) | > 100 µM (inactive)
